Assay results from US10787446B2 (GENENTECH, INC., priority 2015, dated 2020).

Target: T1, hNav1.7 and the β1 subunit (Homo sapiens, UniProt Q15858)
T1 construct: expressed in transfected cells
Test: Tritiated compound competitive binding to membranes from cells heterologously expressing hNav1.7 and the β1 subunit (LBA)
Settings: competition with 100 pM [3H]compound, 18 h, room temperature; IC50 by 4 parameter logistic model
In short: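 Membranes were incubated 18 h at room temperature with 100 pM [3H]-labelled NaV1.7 inhibitor and increasing test compound in 100 mM NaCl, 20 mM Tris HCl, pH 7.4. Bound radioligand was filtered on PEI-soaked GF/C, washed, and counted by scintillation. IC50 from a 4-parameter logistic fit of % inhibition.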

T1 sequence (Q15858 whole entry): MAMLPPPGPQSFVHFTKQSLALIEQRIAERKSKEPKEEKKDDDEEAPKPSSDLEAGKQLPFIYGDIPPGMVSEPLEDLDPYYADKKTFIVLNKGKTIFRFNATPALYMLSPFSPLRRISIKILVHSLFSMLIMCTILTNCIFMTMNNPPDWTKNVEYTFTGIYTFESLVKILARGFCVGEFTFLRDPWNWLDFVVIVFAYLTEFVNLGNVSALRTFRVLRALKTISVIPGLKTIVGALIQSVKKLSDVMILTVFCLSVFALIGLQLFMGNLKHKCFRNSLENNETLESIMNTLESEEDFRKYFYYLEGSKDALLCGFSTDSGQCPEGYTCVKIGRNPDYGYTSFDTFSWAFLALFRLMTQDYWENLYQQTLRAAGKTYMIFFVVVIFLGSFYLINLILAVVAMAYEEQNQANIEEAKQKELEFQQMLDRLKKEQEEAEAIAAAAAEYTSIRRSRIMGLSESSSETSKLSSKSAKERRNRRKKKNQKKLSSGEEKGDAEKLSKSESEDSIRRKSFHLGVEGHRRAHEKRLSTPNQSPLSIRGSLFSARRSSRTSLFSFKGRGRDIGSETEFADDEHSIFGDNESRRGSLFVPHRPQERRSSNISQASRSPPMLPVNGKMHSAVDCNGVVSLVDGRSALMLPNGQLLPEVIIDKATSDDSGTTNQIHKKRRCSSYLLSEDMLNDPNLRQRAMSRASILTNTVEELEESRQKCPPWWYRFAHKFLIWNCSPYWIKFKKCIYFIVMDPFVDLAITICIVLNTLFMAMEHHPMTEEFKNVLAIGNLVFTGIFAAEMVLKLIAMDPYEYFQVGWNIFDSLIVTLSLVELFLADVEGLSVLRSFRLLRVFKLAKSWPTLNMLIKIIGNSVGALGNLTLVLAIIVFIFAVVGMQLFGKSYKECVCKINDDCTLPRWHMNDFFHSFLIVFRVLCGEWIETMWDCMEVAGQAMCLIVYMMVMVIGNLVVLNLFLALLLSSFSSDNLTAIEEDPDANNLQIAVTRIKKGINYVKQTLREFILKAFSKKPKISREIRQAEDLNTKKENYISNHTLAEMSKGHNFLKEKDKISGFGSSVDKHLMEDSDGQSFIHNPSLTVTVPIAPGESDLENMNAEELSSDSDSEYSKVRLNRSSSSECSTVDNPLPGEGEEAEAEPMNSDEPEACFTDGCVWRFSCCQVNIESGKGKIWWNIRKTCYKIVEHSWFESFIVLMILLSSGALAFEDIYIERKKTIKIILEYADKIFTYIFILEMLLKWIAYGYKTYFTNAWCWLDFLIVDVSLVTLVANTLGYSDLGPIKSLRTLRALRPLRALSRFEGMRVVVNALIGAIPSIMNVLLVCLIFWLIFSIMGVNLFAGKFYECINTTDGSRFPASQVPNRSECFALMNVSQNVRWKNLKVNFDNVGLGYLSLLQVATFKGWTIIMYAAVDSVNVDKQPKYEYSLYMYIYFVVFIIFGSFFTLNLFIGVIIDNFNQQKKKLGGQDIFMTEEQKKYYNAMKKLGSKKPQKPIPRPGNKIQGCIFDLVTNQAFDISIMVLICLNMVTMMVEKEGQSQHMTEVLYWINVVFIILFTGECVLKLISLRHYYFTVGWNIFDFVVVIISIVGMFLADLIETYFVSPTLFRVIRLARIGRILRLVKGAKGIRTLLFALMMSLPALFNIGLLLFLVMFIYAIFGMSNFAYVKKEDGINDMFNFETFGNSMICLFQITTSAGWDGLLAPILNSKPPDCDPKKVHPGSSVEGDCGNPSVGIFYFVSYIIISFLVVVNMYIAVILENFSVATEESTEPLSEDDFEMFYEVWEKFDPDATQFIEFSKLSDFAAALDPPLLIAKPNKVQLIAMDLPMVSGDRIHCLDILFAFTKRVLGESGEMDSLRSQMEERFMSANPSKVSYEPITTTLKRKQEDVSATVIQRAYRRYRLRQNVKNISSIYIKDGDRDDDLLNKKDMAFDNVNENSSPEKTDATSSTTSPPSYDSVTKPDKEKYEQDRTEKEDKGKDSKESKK
T1 sequence (Q07699 19-218 partner): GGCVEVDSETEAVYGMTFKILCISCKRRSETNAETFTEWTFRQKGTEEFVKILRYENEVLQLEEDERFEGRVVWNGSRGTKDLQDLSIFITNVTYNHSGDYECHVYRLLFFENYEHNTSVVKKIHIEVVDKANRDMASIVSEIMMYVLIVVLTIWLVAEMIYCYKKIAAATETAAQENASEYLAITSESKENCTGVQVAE

SMILES | Nav1.7 (LBA)
O=S(=O)(Nc1ncns1)c1ccc2c(c1)OCC[C@@H]2N1CC[C@](O)(C(F)(F)F)C[C@@H]1c1ccc(F)cc1 [Example 169, (S)-4-((2R,4R)-2-(4-fluorophenyl)-4-hydroxy-4-(trifluoromethyl)piperidin-1-yl)-N-(1,2,4-thiadiazol-5-yl)chroman-7-sulfonamide] | 0.0682 µM
O=S(=O)(Nc1ncns1)c1ccc2c(c1)OCC[C@H]2N1CC[C@](O)(C(F)(F)F)C[C@@H]1c1ccc(F)cc1 [Example 170, (R)-4-((2R,4R)-2-(4-fluorophenyl)-4-hydroxy-4-(trifluoromethyl)piperidin-1-yl)-N-(1,2,4-thiadiazol-5-yl)chroman-7-sulfonamide] | 0.175 µM
O=S(=O)(Nc1ncns1)c1ccc2c(c1)OCC[C@H]2N1CC[C@@H](OC(F)(F)F)C[C@H]1c1ccc(F)cc1 [Example 173, (R)-4-((2S,4R)-2-(4-fluorophenyl)-4-(trifluoromethoxy)piperidin-1-yl)-N-(1,2,4-thiadiazol-5-yl)chroman-7-sulfonamide] | 0.000895 µM
O=S(=O)(Nc1ncns1)c1ccc2c(c1)OCC[C@@H]2N1CC[C@@H](OC(F)(F)F)C[C@H]1c1ccc(F)cc1 [Example 174, (S)-4-((2S,4R)-2-(4-fluorophenyl)-4-(trifluoromethoxy)piperidin-1-yl)-N-(1,2,4-thiadiazol-5-yl)chroman-7-sulfonamide] | 0.235 µM
O=S(=O)(Nc1ncns1)c1ccc2c(c1)OCC[C@@H]2N1CC[C@H](OC(F)(F)F)C[C@@H]1c1ccc(F)cc1 [Example 175, (S)-4-((2R,4S)-2-(4-fluorophenyl)-4-(trifluoromethoxy)piperidin-1-yl)-N-(1,2,4-thiadiazol-5-yl)chroman-7-sulfonamide] | 0.00305 µM
O=S(=O)(Nc1ncns1)c1ccc2c(c1)OCC[C@H]2N1CC[C@H](OC(F)(F)F)C[C@@H]1c1ccc(F)cc1 [Example 176, (R)-4-((2R,4S)-2-(4-fluorophenyl)-4-(trifluoromethoxy)piperidin-1-yl)-N-(1,2,4-thiadiazol-5-yl)chroman-7-sulfonamide] | 0.0248 µM
N#C[C@@H]1CCN([C@H]2CCOc3cc(S(=O)(=O)Nc4ncns4)ccc32)[C@H](c2ccc(F)cc2)C1 [Example 177, (S)-4-((2S,4R)-4-cyano-2-(4-fluorophenyl)piperidin-1-yl)-N-(1,2,4-thiadiazol-5-yl)chroman-7-sulfonamide] | 0.00584 µM
N#C[C@@H]1CCN([C@@H]2CCOc3cc(S(=O)(=O)Nc4ncns4)ccc32)[C@H](c2ccc(F)cc2)C1 [Example 178, (R)-4-((2S,4R)-4-cyano-2-(4-fluorophenyl)piperidin-1-yl)-N-(1,2,4-thiadiazol-5-yl)chroman-7-sulfonamide] | 1.02 µM
N#C[C@H]1CCN([C@H]2CCOc3cc(S(=O)(=O)Nc4ncns4)ccc32)[C@@H](c2ccc(F)cc2)C1 [Example 179, (S)-4-((2R,4S)-4-cyano-2-(4-fluorophenyl)piperidin-1-yl)-N-(1,2,4-thiadiazol-5-yl)chroman-7-sulfonamide] | 0.0109 µM
N#C[C@H]1CCN([C@@H]2CCOc3cc(S(=O)(=O)Nc4ncns4)ccc32)[C@@H](c2ccc(F)cc2)C1 [Example 180, (R)-4-((2R,4S)-4-cyano-2-(4-fluorophenyl)piperidin-1-yl)-N-(1,2,4-thiadiazol-5-yl)chroman-7-sulfonamide] | 0.158 µM
O=S(=O)(Nc1ncns1)c1ccc2c(c1)OCC[C@H]2N1CC[C@@H](CF)C[C@H]1c1ccc(F)cc1 [Example 181, (R)-4-((2S,4R)-4-(fluoromethyl)-2-(4-fluorophenyl)piperidin-1-yl)-N-(1,2,4-thiadiazol-5-yl)chroman-7-sulfonamide] | 0.735 µM
O=S(=O)(Nc1ncns1)c1ccc2c(c1)OCC[C@@H]2N1CC[C@@H](CF)C[C@H]1c1ccc(F)cc1 [Example 182, (S)-4-((2S,4R)-4-(fluoromethyl)-2-(4-fluorophenyl)piperidin-1-yl)-N-(1,2,4-thiadiazol-5-yl)chroman-7-sulfonamide] | 0.00399 µM
O=S(=O)(Nc1ncns1)c1ccc2c(c1)OCC[C@@H]2N1CC[C@H](CF)C[C@@H]1c1ccc(F)cc1 [Example 183, (S)-4-((2R,4S)-4-(fluoromethyl)-2-(4-fluorophenyl)piperidin-1-yl)-N-(1,2,4-thiadiazol-5-yl)chroman-7-sulfonamide] | 0.00652 µM
O=S(=O)(Nc1ncns1)c1ccc2c(c1)OCC[C@H]2N1CC[C@H](CF)C[C@@H]1c1ccc(F)cc1 [Example 184, (R)-4-((2R,4S)-4-(fluoromethyl)-2-(4-fluorophenyl)piperidin-1-yl)-N-(1,2,4-thiadiazol-5-yl)chroman-7-sulfonamide] | 0.132 µM
O=S(=O)(Nc1ncns1)c1ccc2c(c1)OCC[C@H]2N1CC[C@@H](C(F)F)C[C@H]1c1ccc(F)cc1 [Example 185, (R)-4-((2S,4R)-4-(difluoromethyl)-2-(4-fluorophenyl)piperidin-1-yl)-N-(1,2,4-thiadiazol-5-yl)chroman-7-sulfonamide] | 2.18 µM
O=S(=O)(Nc1ncns1)c1ccc2c(c1)OCC[C@@H]2N1CC[C@@H](C(F)F)C[C@H]1c1ccc(F)cc1 [Example 186, (S)-4-((2S,4R)-4-(difluoromethyl)-2-(4-fluorophenyl)piperidin-1-yl)-N-(1,2,4-thiadiazol-5-yl)chroman-7-sulfonamide] | 0.00214 µM
O=S(=O)(Nc1ncns1)c1ccc2c(c1)OCC[C@@H]2N1CC[C@H](C(F)F)C[C@@H]1c1ccc(F)cc1 [Example 187, (S)-4-((2R,4S)-4-(difluoromethyl)-2-(4-fluorophenyl)piperidin-1-yl)-N-(1,2,4-thiadiazol-5-yl)chroman-7-sulfonamide] | 0.00255 µM
O=S(=O)(Nc1ncns1)c1ccc2c(c1)OCC[C@H]2N1CC[C@H](C(F)F)C[C@@H]1c1ccc(F)cc1 [Example 188, (R)-4-((2R,4S)-4-(difluoromethyl)-2-(4-fluorophenyl)piperidin-1-yl)-N-(1,2,4-thiadiazol-5-yl)chroman-7-sulfonamide] | 0.131 µM

The remaining lines, values ahead:

Nav1.7 (LBA) | SMILES
2.028 µM | O=S(=O)(Nc1ncns1)c1cc2c(cc1F)[C@H](N1CC[C@@](O)(C(F)(F)F)C[C@H]1c1ccc(F)cc1)CCO2 [Example 171, (R)-6-fluoro-4-((2S,4S)-2-(4-fluorophenyl)-4-hydroxy-4-(trifluoromethyl)piperidin-1-yl)-N-(1,2,4-thiadiazol-5-yl)chroman-7-sulfonamide]
0.0448 µM | O=S(=O)(Nc1nccs1)c1cc2c(cc1F)[C@H](N1CC[C@@H](C(F)(F)F)C[C@H]1c1ccccn1)CCO2 [Example 190, (R)-6-fluoro-4-((2S,4R)-2-(pyridin-2-yl)-4-(trifluoromethyl)piperidin-1-yl)-N-(thiazol-2-yl)chroman-7-sulfonamide]
0.176 µM | O=S(=O)(Nc1ncns1)c1ccc2c(c1)OCC[C@H]2N1CC[C@@H](C(F)(F)F)C[C@H]1c1ccccn1 [Example 191, (R)-4-((2S,4R)-2-(pyridin-2-yl)-4-(trifluoromethyl)piperidin-1-yl)-N-(1,2,4-thiadiazol-5-yl)chroman-7-sulfonamide]
0.0103 µM | O=S(=O)(Nc1nccs1)c1cc2c(cc1F)[C@H](N1CC[C@@H](C(F)(F)F)C[C@H]1c1cccnc1)CCO2 [Example 193, (R)-6-fluoro-4-((2S,4R)-2-(pyridin-3-yl)-4-(trifluoromethyl)piperidin-1-yl)-N-(thiazol-2-yl)chroman-7-sulfonamide]
0.0901 µM | O=S(=O)(Nc1nccs1)c1cc2c(cc1F)[C@H](N1CC[C@@H](C(F)(F)F)C[C@H]1c1ccncc1)CCO2 [Example 195, (R)-6-fluoro-4-((2S,4R)-2-(pyridin-4-yl)-4-(trifluoromethyl)piperidin-1-yl)-N-(thiazol-2-yl)chroman-7-sulfonamide]
0.351 µM | O=S(=O)(Nc1nccs1)c1cc2c(cc1F)[C@H](N1CC[C@@H](C(F)(F)F)C[C@H]1c1ccc(F)c(F)c1)CCO2 [Example 197, (R)-4-((2S,4R)-2-(3,4-difluorophenyl)-4-(trifluoromethyl)piperidin-1-yl)-6-fluoro-N-(thiazol-2-yl)chroman-7-sulfonamide]
0.000649 µM | O=S(=O)(Nc1nccs1)c1cc2c(cc1F)[C@@H](N1CC[C@@H](C(F)(F)F)C[C@H]1c1ccc(F)c(F)c1)CCO2 [Example 198, (S)-4-((2S,4R)-2-(3,4-difluorophenyl)-4-(trifluoromethyl)piperidin-1-yl)-6-fluoro-N-(thiazol-2-yl)chroman-7-sulfonamide]
0.11 µM | O=S(=O)(Nc1nccs1)c1cc2c(cc1F)[C@H](N1CC[C@@H](C(F)(F)F)C[C@H]1c1cn[nH]c1)CCO2 [Example 199, (R)-4-((2S,4R)-2-(1H-pyrazol-4-yl)-4-(trifluoromethyl)piperidin-1-yl)-6-fluoro-N-(thiazol-2-yl)chroman-7-sulfonamide]
0.0037 µM | Cn1cc([C@@H]2C[C@H](C(F)(F)F)CCN2[C@H]2CCOc3cc(S(=O)(=O)Nc4ncns4)ccc32)cn1 [Example 201, (S)-4-((2S,4R)-2-(1-methyl-1H-pyrazol-4-yl)-4-(trifluoromethyl)piperidin-1-yl)-N-(1,2,4-thiadiazol-5-yl)chroman-7-sulfonamide]
